Assay results published in patent US20140228543A1, “MODIFIED AND DERIVATIZED ß-GLUCAN COMPOUNDS, COMPOSITIONS, AND METHODS” (Biothera, Inc., priority 2011, published 2014).

Assays:
Format in all cases: cell-based
human neutrophils [1] = assay: iC3b deposition on neutrophils (flow cytometry); settings: for Approximate Fold Increase/Decrease in MFI over Parent Compound (iC3b) / MFI(ic3b) compound/MFI(ic3b) PBS: 200 μg/mL hexose concentration, 2 hr, 37° C., 10% serum
Method: This ability was evaluated by comparing the levels of iC3b complement fragment detected on human neutrophils with the derivative versus parent β-glucan-bound.
Enriched neutrophils were resuspended at 1×10^6 cells/mL in RPMI 1640 supplemented with 10% serum. The parent or the derivatized glucans at 200, μg/mL hexose concentration were added to neutrophils and incubated in a 37° C., 5% C02 humidified incubator for 2 hr. After incubation, cells were washed twice with FACS buffer (HBSS supplemented with 1% FBS and 0.1% sodium azide) to remove any unbound β-glucan, stained with a neo-epitope specific anti-iC3b Ab and PE-conjugated goat anti-mouse IgG and subsequently analyzed by flow cytometry.
Table 1 below lists the fold change of mean fluorescence intensity (MFI) values of iC3b staining on neutrophils treated with each of the parent or derivatized glucans over that of PBS control-treated cells.

human neutrophils [2] = assay: β-glucan binding on neutrophils (BfD IV staining, flow cytometry); settings: for Approximate Fold Increase/Decrease in MFI over Parent Compound (BfD IV) / MFI(BID IV) compound/MFI(BID IV) PBS: 200 μg/mL hexose concentration, 2 hr, 37° C., 10% serum
Method: This ability was evaluated by comparing the levels of neutrophil-bound parent versus the derivatives of β-glucans detected by BfD IV, a monoclonal antibody (MAb) specific for β-1,3/1,6 glucans. […] Table 2 lists the fold change of MFI values of BfD IV staining on neutrophils treated with each of the parent and derivatized glucans over that of PBS control-treated cells.
Enriched neutrophils were resuspended at 1×10^6 cells/mL in RPMI 1640 supplemented with 10% serum. The parent or the derivatized glucans at 200, μg/mL hexose concentration were added to neutrophils and incubated in a 37° C., 5% CO2 humidified incubator for 2 hr. After incubation, cells were washed twice with FACS buffer (HBSS supplemented with 1% FBS and 0.1% sodium azide) to remove any unbound β-glucan, and subsequently treated with Fc block. Post Fc block step, cells were stained with the BfD IV Ab for 30 min at 4° C. and washed twice with cold FACS buffer. Cells were then incubated with FITC-conjugated F(ab′)2 goat anti-mouse IgM for 30 min at 4° C. and washed once with cold FACS buffer before fixing with 1% paraformaldehyde. Events were collected on a LSRII flow cytometer and analysis was performed using FlowJo software.
Table 2 summarizes the fold change of MFI values of BfD IV staining on neutrophils treated with each of the parent, or derivatized β-glucans, over that of PBS control-treated cells.

[3] = system: human peripheral blood mononuclear cells; assay: Oxidative burst (superoxide production by cytochrome c reduction) on immobilized glucan; settings: human PBMCs
Method: Dilutions of MMW and BT-1222 were prepared out-of-plate in water. Subsequently, 50 μL of each dilution were added to triplicate wells of Costar® Universal-Bind™ microtiter plates. For immobilizing the glucans on the plate, the plate was irradiated for 5 min in a UV cross-linker, and then incubated at 50° C. until completely dried. After checking for complete dryness of the plate, it was cross-linked again under UV for 5 minutes. The microtiter plates were then blocked with 0.25% bovine serum albumin (BSA) in DPBS for 30 min at room temperature. Each microtiter plate included positive control wells and negative control wells to which only water with no polysaccharide was added at this point.
The oxidative burst response was then determined by standard methods by measuring SO production through the reduction of cytochrome c. Peripheral blood mononuclear cells (PBMCs) were resuspended in HBSS/HEPES buffer with 0.25% BSA at a concentration of 4×10^6 cells/mL and maintained at 37° C. until added to the plate. A 100 μL aliquot of 200 μM bovine cytochrome c solution in HBSS/HEPES buffer previously incubated at 37° C. was added to each well. Approximately 4.0×10^5 cells, in a 100 μL volume, were subsequently added to each well of the microtiter plate. The negative assay control consisting of cells and cytochrome c was added in the uncoated negative control wells. As a positive assay control, just before reading the plate, phorbol myristate acetate (PMA) at 100 ng/mL was added as the stimulus to the cells in the uncoated positive control wells to achieve a final concentration of 50 ng/mL. The plate was maintained at 37° C., and optical density (OD) in each well was read at 550 nm every 15 min for 120 min using a spectrophotometer. For each concentration of polysaccharide, the OD change (ΔOD) was calculated from the time of minimum response (1 min) to the time of maximum response (120 mins). The rate of SO production (nmoles of SO/10^6 cells/120 mins) was calculated from the ΔOD value and the extinction coefficient of cytochrome c (21.1×103 M-1 cm-1). […]

human neutrophils [4] = assay: Neutrophil migration (chemotaxis) to serum-treated glucan
Method: This ability was measured by comparing the migratory capacity of human neutrophils to parent medium molecular weight (MMW) yeast β-glucan versus one of its derivatives, BT-1222. […] In contrast, the migration of neutrophils to MMW β-glucan or BT-1222 was 3.1 fold and 2.8 fold over medium alone, respectively.
Heparinized peripheral blood was obtained from healthy volunteers, and neutrophils were isolated by density gradient centrifugation with Ficoll-Paque followed by 3% […] sedimentation. Residual erythrocytes were removed by hypotonic lysis. Neutrophils were resuspended at 200,000 cells/ml in RPMI with 3% autologous serum (AS). MMW (3.3 mg/mL), BT-1222 (3.3 mg/mL) and PBS control were mixed with AS in 1:1 ratio and placed in a 37° C. water bath for 30 minutes. After incubation, Imprime and benzylamine-Imprime were diluted in RPMI to achieve 100, 50, 25, and 10 μg/ml concentrations with final concentration of serum being 3%. PBS control was diluted in a similar manner. […] The plate was placed in 37° C. incubator for 1 hour, lysed with 10 μl Cell-titer glo and read for luminescence on the M5 plate reader. Fold over media migration (chemotaxis) was calculated by dividing the RLU (relative luminescence units) for the treatment groups over migration to media (chemokinesis).

Row | Substance | Approximate Fold Increase/Decrease in MFI over Parent Compound (iC3b) (human neutrophils [1]) | MFI(ic3b) compound/MFI(ic3b) PBS (human neutrophils [1]) | staining of iC3b on glucan-bound neutrophils compared with MMW-bound neutrophils (human neutrophils [1]; FIG. 3 histogram) | Approximate Fold Increase/Decrease in MFI over Parent Compound (BfD IV) (human neutrophils [2]) | MFI(BID IV) compound/MFI(BID IV) PBS (human neutrophils [2]) | staining of BfD IV on glucan-bound neutrophils compared with MMW-bound neutrophils (human neutrophils [2]; histogram) | rate of superoxide production in comparison to MMW ([3]; at each concentration tested) | oxidative burst as measured by rate of superoxide production ([3]; plate-immobilized glucan, 120 min) | migration of neutrophils compared with parent MMW (human neutrophils [4]; FIG. 2) | migration of neutrophils, fold over medium alone (human neutrophils [4]; glucan pre-incubated with autologous serum, 1 hour at 37° C.) | oxidative burst compared with parent scleroglucan and parent MMW yeast β-glucan ([3]; FIG. 5)
1 | Benzyl Amine MMW Yeast Glucan Analog [BT-1222] | 3.0 fold | 5.9 ± 2.2 | higher | 3.1 fold | 13.2 ± 3.6 | higher | higher | dose dependent oxidative burst | comparable | 2.8 fold | –
2 | De-Branched Scleroglucan Analog [BT-1322] | – | – | – | – | – | – | – | – | – | – | higher oxidative burst
3 | Mannose Propyl Amine MMW Yeast Glucan Analog [BT-1243] | 4.3 fold | 8.6 ± 0.3 | – | 4.7 fold | 19.7 ± 13.4 | – | – | – | – | – | –
4 | Mannose Propyl Amine Scleroglucan Analog [BT-1290] | 0.7 fold | 1.1 | – | 0.7 fold | 1.4 | – | – | – | – | – | –
5 | Propyl Amine Dextran Analog [BT-1266] | 0.9 fold | 1.0 | – | 1.1 fold | 1.1 | – | – | – | – | – | –
6 | Propyl Amine LMW Yeast Glucan Analog [BT-1276] | 1.1 fold | 1.2 ± 0.1 | – | 1.0 fold | 1.5 ± 0.1 | – | – | – | – | – | –
7 | Propyl Amine MMW Yeast Glucan Analog [BT-1267] | 4.0 fold | 8.0 ± 3.9 | – | 5.6 fold | 23.6 ± 16.4 | – | – | – | – | – | –
8 | S-(+)-2-Phenyl Glycinol MMW Yeast Glucan Analog [BT-1300] | 0.8 fold | 1.6 | – | 0.6 fold | 2.5 | – | – | – | – | – | –
9 | Scleroglucan [Scleroglucan (parent), reference compound] | – | 1.6 | – | – | 1.9 | – | – | – | – | – | –
10 | Tryptophan MMW Yeast Glucan Analog [BT-1220] | 5.1 fold | 10.1 | – | 4.8 fold | 20.3 | – | – | – | – | – | –
11 | Tyrosine MMW Yeast Glucan Analog [BT-1297] | 1.2 fold | 2.3 | – | 0.5 fold | 2.2 | – | – | – | – | – | –
